In PubChem BioAssay (NCI):
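In this assay, cells in 96-well plates receive the compound at five concentrations for 48 hours. Endpoints are linearly interpolated between the surrounding concentrations. TGI denotes the concentration required for complete inhibition of growth.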

Legend:
Test in all cases: inhibition of tumour cell growth, NCI panel, 48 h
KM12 colon = tested on: KM12 colon
HCT-15 colon = tested on: HCT-15 colon
COLO 205 colon = tested on: COLO 205 colon
U251 CNS = tested on: U251 CNS
RPMI-8226 leukemia = tested on: RPMI-8226 leukemia
CCRF-CEM leukemia = tested on: CCRF-CEM leukemia
MOLT-4 leukemia = tested on: MOLT-4 leukemia
K-562 leukemia = tested on: K-562 leukemia
HS 578T breast = tested on: HS 578T breast
786-0 renal = tested on: 786-0 renal
NCI-H460 lung = tested on: NCI-H460 lung
OVCAR-4 ovarian = tested on: OVCAR-4 ovarian
MCF7 breast = tested on: MCF7 breast
SNB-19 CNS = tested on: SNB-19 CNS
SF-539 CNS = tested on: SF-539 CNS
MDA-MB-435 = tested on: MDA-MB-435
UACC-257 melanoma = tested on: UACC-257 melanoma
LOX IMVI melanoma = tested on: LOX IMVI melanoma
SR leukemia = tested on: SR leukemia
SK-MEL-2 melanoma = tested on: SK-MEL-2 melanoma
SK-OV-3 ovarian = tested on: SK-OV-3 ovarian
DU-145 prostate = tested on: DU-145 prostate
HOP-92 NSCLC = tested on: HOP-92 NSCLC
EKVX NSCLC = tested on: EKVX NSCLC
HCC-2998 colon = tested on: HCC-2998 colon
OVCAR-5 ovarian = tested on: OVCAR-5 ovarian
IGROV1 ovarian = tested on: IGROV1 ovarian
T-47D breast = tested on: T-47D breast
M14 melanoma = tested on: M14 melanoma
HL-60(TB) leukemia = tested on: HL-60(TB) leukemia
SK-MEL-5 melanoma = tested on: SK-MEL-5 melanoma
CAKI-1 renal = tested on: CAKI-1 renal
SF-268 CNS = tested on: SF-268 CNS
MDA-MB-231 breast = tested on: MDA-MB-231 breast
NCI-H522 lung = tested on: NCI-H522 lung
NCI/ADR-RES ovarian = tested on: NCI/ADR-RES ovarian
PC-3 prostate = tested on: PC-3 prostate
OVCAR-3 ovarian = tested on: OVCAR-3 ovarian
RXF 393 renal = tested on: RXF 393 renal
OVCAR-8 ovarian = tested on: OVCAR-8 ovarian
TK-10 renal = tested on: TK-10 renal
A549 NSCLC = tested on: A549 NSCLC
BT-549 breast = tested on: BT-549 breast
MDA-N = tested on: MDA-N
UACC-62 melanoma = tested on: UACC-62 melanoma
SW-620 colon = tested on: SW-620 colon
NCI-H23 lung = tested on: NCI-H23 lung
MALME-3M melanoma = tested on: MALME-3M melanoma
ACHN renal = tested on: ACHN renal
SN12C renal = tested on: SN12C renal
HT29 colon = tested on: HT29 colon
A498 renal = tested on: A498 renal
HCT-116 colon = tested on: HCT-116 colon
NCI-H226 lung = tested on: NCI-H226 lung
SF-295 CNS = tested on: SF-295 CNS
HOP-62 NSCLC = tested on: HOP-62 NSCLC
SK-MEL-28 melanoma = tested on: SK-MEL-28 melanoma
SNB-75 CNS = tested on: SNB-75 CNS

With `N=c1c2c(=S)n(-c3ccccc3)c(=S)n(-c3ccccc3)c2nc(SCCN2CCOCC2)n1-c1ccccc1` the TGI (KM12 colon) was 6.09 µM, the TGI (HCT-15 colon) was 4.09 µM and the TGI (COLO 205 colon) was 3.66 µM. The TGI (U251 CNS) was 3.93 µM, the TGI (RPMI-8226 leukemia) was 3.97 µM and the TGI (CCRF-CEM leukemia) was 3.19 µM. The TGI (MOLT-4 leukemia) was 3.75 µM, the TGI (K-562 leukemia) was 4.18 µM and the TGI (HS 578T breast) was > 100 µM. For the same compound, the TGI (786-0 renal) was 3.14 µM, the TGI (NCI-H460 lung) was 5.96 µM and the TGI (OVCAR-4 ovarian) was 3.4 µM. For the same compound, the TGI (MCF7 breast) was > 100 µM, the TGI (SNB-19 CNS) was 24 µM and the TGI (SF-539 CNS) was 8.83 µM. It also gave a TGI (MDA-MB-435) of 3.4 µM, a TGI (UACC-257 melanoma) of 4.28 µM and a TGI (LOX IMVI melanoma) of 3.71 µM. The TGI (SR leukemia) was 2.79 µM, the TGI (SK-MEL-2 melanoma) was 8.17 µM and the TGI (SK-OV-3 ovarian) was 15 µM. For the same compound, the TGI (DU-145 prostate) was 3.22 µM, the TGI (HOP-92 NSCLC) was 4.12 µM and the TGI (EKVX NSCLC) was 9.58 µM. It also gave a TGI (HCC-2998 colon) of 3.24 µM, a TGI (OVCAR-5 ovarian) of 33.9 µM and a TGI (IGROV1 ovarian) of 3.36 µM. For the same compound, the TGI (T-47D breast) was 8.03 µM, the TGI (M14 melanoma) was 3.8 µM and the TGI (HL-60(TB) leukemia) was 3.31 µM. The TGI (SK-MEL-5 melanoma) was 6.66 µM, the TGI (CAKI-1 renal) was 3.99 µM and the TGI (SF-268 CNS) was 4.41 µM. The TGI (MDA-MB-231 breast) was 4.73 µM, the TGI (NCI-H522 lung) was 3.16 µM and the TGI (NCI/ADR-RES ovarian) was 14.6 µM. The TGI (PC-3 prostate) was 3.35 µM, the TGI (OVCAR-3 ovarian) was 3.3 µM and the TGI (RXF 393 renal) was 3.55 µM. For the same compound, the TGI (OVCAR-8 ovarian) was 4.51 µM, the TGI (TK-10 renal) was 3.1 µM and the TGI (A549 NSCLC) was 3.36 µM. For the same compound, the TGI (BT-549 breast) was 4.51 µM, the TGI (MDA-N) was 4.99 µM and the TGI (UACC-62 melanoma) was 3.29 µM. The TGI (SW-620 colon) was 3.96 µM, the TGI (NCI-H23 lung) was 7.02 µM and the TGI (MALME-3M melanoma) was 3.49 µM. For the same compound, the TGI (ACHN renal) was 3.5 µM, the TGI (SN12C renal) was 3.71 µM and the TGI (HT29 colon) was 4.03 µM. The TGI (A498 renal) was 8.96 µM, the TGI (HCT-116 colon) was 3.45 µM and the TGI (NCI-H226 lung) was 15.5 µM. For the same compound, the TGI (SF-295 CNS) was 19.2 µM, the TGI (HOP-62 NSCLC) was 4.96 µM and the TGI (SK-MEL-28 melanoma) was 4.39 µM. It also gave a TGI (SNB-75 CNS) of 4.54 µM.
